The numbers were not newly measured in patent EP3463364B1, “PYRAZINE DERIVATIVES FOR USE IN THE TREATMENT OF DISEASES ASSOCIATED WITH CELL CYCLE DYSREGULATION” (University of Patras, priority 2016, dated 2017), which cites them from elsewhere.

For the data set, the target named is T1, Geminin-Cdtl interaction (Homo sapiens, UniProt Q9H211).
T1 sequence (Q9H211 1-546): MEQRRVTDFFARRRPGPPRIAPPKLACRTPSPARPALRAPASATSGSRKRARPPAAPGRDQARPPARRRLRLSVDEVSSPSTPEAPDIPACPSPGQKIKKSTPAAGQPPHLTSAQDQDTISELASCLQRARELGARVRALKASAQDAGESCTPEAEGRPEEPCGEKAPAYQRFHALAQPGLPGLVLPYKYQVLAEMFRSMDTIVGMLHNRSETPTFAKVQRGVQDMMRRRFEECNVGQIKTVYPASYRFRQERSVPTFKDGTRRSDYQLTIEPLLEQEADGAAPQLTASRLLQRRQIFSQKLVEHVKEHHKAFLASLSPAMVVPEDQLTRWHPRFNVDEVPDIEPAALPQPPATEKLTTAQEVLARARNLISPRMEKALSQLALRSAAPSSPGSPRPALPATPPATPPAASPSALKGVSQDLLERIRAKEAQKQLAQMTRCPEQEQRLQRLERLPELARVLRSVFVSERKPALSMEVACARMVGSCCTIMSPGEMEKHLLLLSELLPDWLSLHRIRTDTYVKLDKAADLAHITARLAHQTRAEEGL
Particulars: in vitro, through binding to the Cdtl licensing factor; literature; cited from earlier work.

Consider `CCCCCCCC/C=C\CCCCCCCC(=O)O` [oleic acid (C18:1), oleic acid], for which the “inhibition of the Geminin-Cdtl interaction” value is “inhibit the interaction of the two proteins in vitro”.

Turning to `COC1=C(OC)C(=O)C(C/C=C(\C)CC/C=C(\C)CC/C=C(\C)CC/C=C(\C)CC/C=C(\C)CC/C=C(\C)CC/C=C(\C)CC/C=C(\C)CC/C=C(\C)CCC=C(C)C)=C(C)C1=O` [coenzyme Q10], the “inhibition of the Geminin-Cdtl interaction” value is “inhibit the interaction of the two proteins in vitro”.
